In one series the test system is macrophage. Nature of the series: macrophage differentiation test. It counts as cell-based. An excerpt:
This is of importance in the prophylaxis of processes such as, for example, psoriasis or atopy or allergies or auto-immune disorders.

A short description of the next series: solubility in water. It counts as physicochemical. How it is done: If salts are sparingly soluble in water, they can be administered in the form of suspensions. […] For example, salts are preferably injected intravenously or intramuscularly in the form of an aqueous solution, such as physiological saline solution. The ampoules contain, for example, 2.5 mg of the fatty acid salt per 5 ml of solution. Ampoules containing, for example, 45 mg of fatty acid salt per milliliter of solution can also be prepared.

Where a name gives a salt, the structure may show the parent alone.

As for `CCCCCCCCC/C=C\CCCCC(=O)O` [cis-6-hexadecenoic acid], the anti-inflammatory macrophage-stimulating potency entry in the series on macrophage was “showed an anti-inflammatory macrophage-stimulating potency”.
Turning to `CCCCCCC/C=C\CCCCCCCC(=O)O` [sodium salt of cis-9-heptadecenoic acid, cis-9-heptadecenoic acid], the solubility in water entry in “solubility in water” is given as “particularly good solubility in water”.

The record behind these values is patent publication US6589520B1, “Treatment of psoriasis, allergies and auto-immune disorders of the skin with cis-6-hexadecenoic acid” (Beiersdorf AG, priority 1997, dated 2003).
